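These data come from cells grown in 96-well plates and exposed to compound for 48 hours at five concentrations. GI50 is the concentration that inhibits growth by half.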 Calls of active or inactive are those of the source. Rule as the data show it: active = GI50 up to about 1.1 µM and inactive = higher. Positions of bridges follow the written chain, without caps; N, C: chain ends. Non-standard residues stand in square brackets, D forms with d. Residues, ends and D or L forms follow the SMILES beside them. *: point of attachment. PhAc = O=C(Cc1ccccc1)*
Columns and labels:
Test in all cases: NCI-60 cell line screen, 48 h
A549 = system: A549
CCRF-CEM = system: CCRF-CEM
OVCAR-5 = system: OVCAR-5
SR = system: SR
HL-60 = system: HL-60
Hs-578T = system: Hs-578T
NCI-H226 = system: NCI-H226
HT-29 = system: HT-29
MOLT-4 = system: MOLT-4
786-0 = system: 786-0
NCI-H23 = system: NCI-H23
RXF 393 = system: RXF 393
DU-145 = system: DU-145
KM12 = system: KM12
LOX IMVI = system: LOX IMVI
HCT-116 = system: HCT-116
IGROV-1 = system: IGROV-1
SF-268 = system: SF-268
SK-OV-3 = system: SK-OV-3
RPMI-8226 = system: RPMI-8226

| Structure (SMILES) | GI50 (A549) | GI50 (CCRF-CEM) | GI50 (OVCAR-5) | GI50 (SR) | GI50 (HL-60) | GI50 (Hs-578T) | GI50 (NCI-H226) | GI50 (HT-29) | GI50 (MOLT-4) | GI50 (786-0) | GI50 (NCI-H23) | GI50 (RXF 393) | GI50 (DU-145) | GI50 (KM12) | GI50 (LOX IMVI) | GI50 (HCT-116) | GI50 (IGROV-1) | GI50 (SF-268) | GI50 (SK-OV-3) | GI50 (RPMI-8226) |
| --- | --- | --- | --- | --- | --- | --- | --- | --- | --- | --- | --- | --- | --- | --- | --- | --- | --- | --- | --- | --- |
| CSCCCNC(=O)[C@H](CSC)NC(=O)c1csc(CCNC(=O)[C@@H](NSc2ccccc2[N+](=O)[O-])C(C)O)n1 (stereo partly drawn) | > 100 µM (inactive) | > 100 µM (inactive) | > 100 µM (inactive) | > 100 µM (inactive) | > 100 µM (inactive) | > 100 µM (inactive) | > 100 µM (inactive) | > 100 µM (inactive) | > 100 µM (inactive) | > 100 µM (inactive) | > 100 µM (inactive) | > 100 µM (inactive) | > 100 µM (inactive) | > 100 µM (inactive) | > 100 µM (inactive) | > 100 µM (inactive) | > 100 µM (inactive) | > 100 µM (inactive) | > 100 µM (inactive) |  |
| O=c1oc2ccccc2c(O)c1C1c2c(c3ccccc3oc2=O)Oc2c1c(=O)oc1ccccc21 |  | 36.5 µM (inactive) |  |  |  | 46.8 µM (inactive) | 22.4 µM (inactive) | 30.2 µM (inactive) | 47.5 µM (inactive) | 43.1 µM (inactive) | 31.3 µM (inactive) |  | 53.5 µM (inactive) | 26.4 µM (inactive) | 38.5 µM (inactive) | 36.6 µM (inactive) | 35 µM (inactive) | 29.4 µM (inactive) |  | 31.7 µM (inactive) |
| O=C1Nc2ccc(Br)cc2/C1=N/S(=O)(=O)O | 26.1 µM (inactive) | 6.85 µM (inactive) | 27.6 µM (inactive) |  | 12.9 µM (inactive) | > 100 µM (inactive) | 28.4 µM (inactive) | 40.1 µM (inactive) | 22 µM (inactive) | 25.4 µM (inactive) | 19.6 µM (inactive) | 48.4 µM (inactive) | 57.1 µM (inactive) | 28.4 µM (inactive) | 10 µM (inactive) | 10.6 µM (inactive) | 55.2 µM (inactive) | 62.8 µM (inactive) | 79.8 µM (inactive) | 14.1 µM (inactive) |
| Cc1cc(C2(c3cc(C)c(O)c4ncccc34)OC(=O)c3ccccc32)c2cccnc2c1O | < 0.001 µM (active) | 0.01 µM (active) | 11.3 µM (inactive) |  | 0.0247 µM (active) | 0.0127 µM (active) | 0.01 µM (active) | 0.0406 µM (active) | 0.522 µM (active) | 0.0178 µM (active) | 0.0187 µM (active) | 0.741 µM (active) | 0.0659 µM (active) | 0.0668 µM (active) | 0.00601 µM (active) | 0.00268 µM (active) | 0.0378 µM (active) | 0.0121 µM (active) | 4.52 µM (inactive) | 0.012 µM (active) |
| CC1CC(Br)C(=O)O1 (stereo not drawn) | > 100 µM (inactive) | > 100 µM (inactive) | > 100 µM (inactive) |  | > 100 µM (inactive) | > 100 µM (inactive) |  | > 100 µM (inactive) | > 100 µM (inactive) |  | > 100 µM (inactive) | > 100 µM (inactive) | > 100 µM (inactive) | > 100 µM (inactive) | > 100 µM (inactive) | > 100 µM (inactive) | > 100 µM (inactive) | > 100 µM (inactive) | > 100 µM (inactive) | 38.6 µM (inactive) |
| C1CCC(OC2CSC2)OC1 (stereo not drawn) | > 100 µM (inactive) | > 100 µM (inactive) |  | > 100 µM (inactive) |  | > 100 µM (inactive) | > 100 µM (inactive) | > 100 µM (inactive) | > 100 µM (inactive) |  | > 100 µM (inactive) | > 100 µM (inactive) | > 100 µM (inactive) | > 100 µM (inactive) | > 100 µM (inactive) | > 100 µM (inactive) |  | > 100 µM (inactive) | > 100 µM (inactive) |  |
| O=C(CSCC(=O)N/N=C\c1ccc(-c2ccccc2)cc1)N/N=C\c1ccc(-c2ccccc2)cc1 | 25.8 µM (inactive) |  | 29.6 µM (inactive) | 6.58 µM (inactive) |  | 18.3 µM (inactive) | 28.8 µM (inactive) | 23 µM (inactive) | 25.3 µM (inactive) | 33.2 µM (inactive) | 17.8 µM (inactive) | 50.5 µM (inactive) | 33 µM (inactive) | 17.9 µM (inactive) | 16.3 µM (inactive) | 9.27 µM (inactive) | 11.8 µM (inactive) | 15.8 µM (inactive) | 18.9 µM (inactive) |  |
| O=C(Cc1ccccc1)N[C@@H]1COC(=O)[C@@H]2CCCN2C(=O)[C@@H]2CCCN2C1=O (PhAc-[dS]-Pro-Pro; ester 1-C) | > 100 µM (inactive) | > 100 µM (inactive) | > 100 µM (inactive) | > 100 µM (inactive) | > 100 µM (inactive) | > 100 µM (inactive) |  | > 100 µM (inactive) | > 100 µM (inactive) | > 100 µM (inactive) | > 100 µM (inactive) | > 100 µM (inactive) | > 100 µM (inactive) | > 100 µM (inactive) | > 100 µM (inactive) | > 100 µM (inactive) | > 100 µM (inactive) | > 100 µM (inactive) | > 100 µM (inactive) |  |
